Reference: patent US20260224566A1, “Obicetrapib and Ezetimibe Combination Treatment and Fixed Dose Pharmaceutical Compositions” (NewAmsterdam Pharma B.V., priority 2023, published 2026)

How the values were obtained:
[1] = test system: participants currently receiving high-intensity statin therapy; test: ROSE2 Phase 2b clinical trial: LDL-C and other lipid efficacy endpoints; assay type: in vivo, human
Procedure: The primary objective of this study is to evaluate the effect of obicetrapib 10 mg+ezetimibe 10 mg combination therapy compared with placebo, when used as an adjunct to high-intensity statin therapy, on LDL-C at Day 84.
The secondary objectives of this study include the following, in hierarchical order: • To evaluate the effect of obicetrapib 10 mg monotherapy compared with placebo, when used as an adjunct to high-intensity statin therapy, on LDL-C at Day 84; • To evaluate the effect of obicetrapib 10 mg+ezetimibe 10 mg combination therapy compared with placebo, when used as an adjunct to high-intensity statin therapy, on ApoB at Day 84; and • To evaluate the effect of obicetrapib 10 mg monotherapy compared with placebo, when used as an adjunct to high-intensity statin therapy, on ApoB at Day 84.
This study will be a placebo-controlled, double-blind, randomized, Phase 2 study to evaluate the efficacy, safety, and tolerability of obicetrapib 10 mg, both in combination with ezetimibe 10 mg and as monotherapy, as an adjunct to high-intensity statin therapy. This study will take place at approximately 20 sites in the United States.
Up to 2 weeks after the Screening Visit, participants will return to the site on Day 1 (Visit 2) and confirm study eligibility before being randomized and beginning treatment. Approximately 114 eligible participants (38 participants per treatment group) will be randomized in a 1:1:1 ratio to 1 of the following treatment groups: • Combination therapy: Obicetrapib 10 mg+ezetimibe 10 mg (administered as one 10 mg obicetrapib tablet and one 10 mg ezetimibe capsule); • Obicetrapib monotherapy: Obicetrapib 10 mg (administered as one 10 mg obicetrapib tablet and 1 placebo capsule); or. • Placebo (administered as 1 placebo tablet and 1 placebo capsule).
During the 12-week Treatment Period, the assigned study drugs will be administered by the participants orally with water, once daily on Day 1 to Day 84 at approximately the same time each morning. Participants will return to the site on Day 28 (±2 days), Day 84 (±2 days), and Day 112 (±2 days) for efficacy, safety, and pharmacokinetic (PK) assessments. Participants, Investigators, the Clinical Research Organization (CRO), and the Sponsor will be blinded to all lipid results from Day 1 (Visit 2) for the first participant until all enrolled participants complete the Day 84 (End of Treatment) visit or are withdrawn from the study, in order to protect blinding to treatment assignment.
The primary efficacy endpoint is the percent change from Day 1 to Day 84 in LDL-C for the obicetrapib 10 mg+ezetimibe 10 mg combination treatment group compared with the placebo group.
The secondary efficacy endpoints include the following, in hierarchical order: • Percent change from Day 1 to Day 84 in LDL-C for the obicetrapib 10 mg monotherapy. • treatment group compared with the placebo group; • Percent change from Day 1 to Day 84 in ApoB for the obicetrapib 10 mg+ezetimibe 10 mg • combination treatment group compared with the placebo group; and • Percent change from Day 1 to Day 84 in ApoB for the obicetrapib 10 mg monotherapy treatment group compared with the placebo group.
The exploratory efficacy endpoints include the following: • Percent change from Day 1 to Day 84 in non-HDL-C, VLDL-C, HDL-C, TG, ApoE, Lp(a), and HDL-ApoE for the obicetrapib 10 mg+ezetimibe 10 mg combination treatment group compared with the placebo group and for the obicetrapib 10 mg monotherapy treatment group compared with the placebo group; and • Proportion of participants at Day 84 that achieve LDL-C <2.6 mmol/L (<100 mg/dL), LDL-C <1.8 mmol/L (<70 mg/dL), and LDL-C <1.3 mmol/L (<50 mg/dL) for the obicetrapib 10 mg+ezetimibe 10 mg combination treatment group compared with the placebo group and for the obicetrapib 10 mg monotherapy treatment group compared with the placebo group. […]

[2] = test system: patients with mild dyslipidemia; details: cited from earlier work
[3] = Exploratory Population, 10 mg each drug
[4] = mITT Population, 10 mg each drug

CCOC(=O)N1c2ccc(C(F)(F)F)cc2[C@@H](N(Cc2cc(C(F)(F)F)cc(C(F)(F)F)c2)c2ncc(OCCCC(=O)O)cn2)C[C@H]1CC [obicetrapib, {4-[(2-{[3,5-bis(trifluoromethyl)benzyl] [(2R,4S)-1-(ethoxycarbonyl)-2-ethyl-6-(trifluoromethyl)-1,2,3,4-tetrahydroquinolin-4-yl]amino}pyrimidin-5-yl)oxy]butanoic acid}]
ApoB Change from Baseline to Day 28, Maximum [1, 3]: -1 mg/dL | ApoB Change from Baseline to Day 28, Median [1, 3]: -23.0 mg/dL | ApoB Change from Baseline to Day 28, Minimum [1, 3]: -55 mg/dL | ApoB Change from Baseline to Day 84, Maximum [1, 3]: 19 mg/dL | ApoB Change from Baseline to Day 84, Minimum [1, 3]: -52 mg/dL | ApoB Percent Change from Baseline to Day 28, Maximum [1, 3]: −3.0% | ApoB Percent Change from Baseline to Day 28, Mean [1, 3]: −26.00% | ApoB Percent Change from Baseline to Day 28, Median [1, 3]: −26.00% | ApoB Percent Change from Baseline to Day 28, Minimum [1, 3]: −47.4% | ApoB Percent Change from Baseline to Day 84, Maximum [1, 3]: 27.1% | ApoB Percent Change from Baseline to Day 84, Minimum [1, 3]: −44.8% | LDL-C Change from Baseline to Day 28, Maximum [1, 3]: -11 mg/dL | LDL-C Change from Baseline to Day 28, Mean [1, 3]: -43.0 mg/dL | LDL-C Change from Baseline to Day 28, Median [1, 3]: -45.0 mg/dL | LDL-C Change from Baseline to Day 28, Minimum [1, 3]: -87 mg/dL | LDL-C Change from Baseline to Day 84, Maximum [1, 3]: 24 mg/dL | LDL-C Change from Baseline to Day 84, Minimum [1, 3]: -112 mg/dL | LDL-C Percent Change from Baseline to Day 28, Maximum [1, 3]: −10.4% | LDL-C Percent Change from Baseline to Day 28, Minimum [1, 3]: −82.0% | LDL-C Percent Change from Baseline to Day 84, Maximum [1, 3]: 22.6% | LDL-C Percent Change from Baseline to Day 84, Minimum [1, 3]: −78.4% | Lp(a) Change from Baseline to Day 84, Maximum [1, 3]: 3.0 nmol/L | ApoB at Day 28, Maximum [1, 3]: 110 mg/dL | ApoB at Day 28, Mean [1, 3]: 65.4 mg/dL | ApoB at Day 28, Median [1, 3]: 64.5 mg/dL | ApoB at Day 28, Minimum [1, 3]: 32 mg/dL | LDL-C at Day 28, Maximum [1, 3]: 136 mg/dL | LDL-C at Day 28, Mean [1, 3]: 57.6 mg/dL | LDL-C at Day 28, Median [1, 3]: 51.5 mg/dL | LDL-C at Day 28, Minimum [1, 3]: 16 mg/dL | ApoB at Day 84, Maximum [1, 3]: 123 mg/dL | ApoB at Day 84, Mean [1, 3]: 69.1 mg/dL | ApoB at Day 84, Median [1, 3]: 65.0 mg/dL | ApoB at Day 84, Minimum [1, 3]: 30 mg/dL | LDL-C at Day 84, Maximum [1, 3]: 148 mg/dL | LDL-C at Day 84, Mean [1, 3]: 60.7 mg/dL | LDL-C at Day 84, Median [1, 3]: 55.5 mg/dL | LDL-C at Day 84, Minimum [1, 3]: 21 mg/dL | Lp(a) at Day 84, Maximum [1, 3]: 327.7 nmol/L | Lp(a) at Day 84, Mean [1, 3]: 74.75 nmol/L | Lp(a) at Day 84, Median [1, 3]: 20.85 nmol/L | Lp(a) at Day 84, Minimum [1, 3]: 2.8 nmol/L | median reduction in LDL-C ([1]; ROSE2, obicetrapib 10 mg with or without ezetimibe 10 mg, adjunct to high-intensity statin): 39% | ApoB Change from Baseline to Day 28, Maximum [1, 4]: 50 mg/dL | ApoB Change from Baseline to Day 28, Median [1, 4]: -20.0 mg/dL | ApoB Change from Baseline to Day 28, Minimum [1, 4]: -85 mg/dL | ApoB Change from Baseline to Day 84, Maximum [1, 4]: 67 mg/dL | ApoB Change from Baseline to Day 84, Minimum [1, 4]: -52 mg/dL | ApoB Percent Change from Baseline to Day 28, Maximum [1, 4]: 64.9% | ApoB Percent Change from Baseline to Day 28, Minimum [1, 4]: −62.0% | ApoB Percent Change from Baseline to Day 84, Maximum [1, 4]: 100.0% | ApoB Percent Change from Baseline to Day 84, Mean [1, 4]: −9.50% | ApoB Percent Change from Baseline to Day 84, Minimum [1, 4]: −44.8% | LDL-C Change from Baseline to Day 28, Maximum [1, 4]: 64 mg/dL | LDL-C Change from Baseline to Day 28, Median [1, 4]: -35.0 mg/dL | LDL-C Change from Baseline to Day 28, Minimum [1, 4]: -121 mg/dL | LDL-C Change from Baseline to Day 84, Maximum [1, 4]: 98 mg/dL | LDL-C Change from Baseline to Day 84, Minimum [1, 4]: -112 mg/dL | LDL-C Percent Change from Baseline to Day 28, Maximum [1, 4]: 70.3% | LDL-C Percent Change from Baseline to Day 28, Minimum [1, 4]: −82.0% | LDL-C Percent Change from Baseline to Day 84, Maximum [1, 4]: 161.5% | LDL-C Percent Change from Baseline to Day 84, Minimum [1, 4]: −78.4% | Lp(a) Change from Baseline to Day 84, Maximum [1, 4]: 22.0 nmol/L | Lp(a) Change from Baseline to Day 84, Median [1, 4]: -4.50 nmol/L | ApoB at Day 28, Maximum [1, 4]: 140 mg/dL | ApoB at Day 28, Mean [1, 4]: 73.4 mg/dL | ApoB at Day 28, Median [1, 4]: 66.0 mg/dL | ApoB at Day 28, Minimum [1, 4]: 32 mg/dL | LDL-C at Day 28, Maximum [1, 4]: 169 mg/dL | LDL-C at Day 28, Mean [1, 4]: 70.3 mg/dL | LDL-C at Day 28, Median [1, 4]: 56.0 mg/dL | LDL-C at Day 28, Minimum [1, 4]: 16 mg/dL | ApoB at Day 84, Maximum [1, 4]: 147 mg/dL | ApoB at Day 84, Mean [1, 4]: 82.4 mg/dL | ApoB at Day 84, Median [1, 4]: 72.0 mg/dL | ApoB at Day 84, Minimum [1, 4]: 30 mg/dL | LDL-C at Day 84, Maximum [1, 4]: 196 mg/dL | LDL-C at Day 84, Mean [1, 4]: 82.7 mg/dL | LDL-C at Day 84, Median [1, 4]: 65.0 mg/dL | LDL-C at Day 84, Minimum [1, 4]: 21 mg/dL | Lp(a) at Day 84, Maximum [1, 4]: 327.7 nmol/L | Lp(a) at Day 84, Mean [1, 4]: 77.96 nmol/L | Lp(a) at Day 84, Median [1, 4]: 26.25 nmol/L | Lp(a) at Day 84, Minimum [1, 4]: 2.8 nmol/L | HDL-C efflux capacity ([2]; TA-8995-03, 10 mg daily dose): significant increase | additional reduction in LDL-C on top of atorvastatin 20 mg ([2]; TA-8995-03, obicetrapib 10 mg): 50.3%
